Experiment [1] concerns SHSY-5Y neuroblastoma cells. Nature of the experiment: FRET assay of Ca+2-induced mitochondrial membrane potential (ΔΨm) collapse in neuroblastoma cells. In kind it is cell-based. As to conditions: FIG. 1; right shift of dose response curve compared to control. On the procedure:
With reference to FIG. 1, mitochondria rapidly take up exogenous Ca^+2 to a maximum value before undergoing an irreversible loss of ΔΨm. ΔΨm was monitored after exposure to Ca^+2 concentrations ranging from 0 to 50 uM using a fluorescence resonance energy transfer (FRET) assay (Dykens and Stout, 2001). Cells were preincubated with 17β-estradiol and 17α-estradiol at 0.5 uM for 2.5 hrs. prior to Ca^+2 challenge, which was imposed by adding Ca^+2 directly to cells that had been permeabilized with digitonin (0.008%) final concentration, 5 min). The response, calculated as area under the curve, was plotted versus log Ca^+2 concentration using sigmoid regression analysis.
The excitation dye in the FRET ΔΨm assay is nonyl acridine orange (NAO). NAO is an exceptionally selective stain for cardiolipin, a lipid found intracellularly almost exclusively (>99%) in the mitochondrial inner membrane. Its staining of the inner membrane is independent of ΔΨm. […]
Because uptake and retention of TMR depends on ΔΨm, at a given dye concentration, the extent of quenching of NAO by TMR reflects the magnitude of ΔΨm. […] The corresponding loss of proximity abolishes quenching of NAO, so that loss of ΔΨm is detected as an increase in NAO fluorescence.

The subject of experiment [2] is cell culture models. As to conditions: doses as low as; cited from earlier work.
Experiment [3] relates to Transformed rat retinal ganglion cells (RGC-5 cells). Nature of the experiment: FRET assay of Ca+2-induced ΔΨm collapse in transformed retinal ganglion cells. In kind it is cell-based. The conditions noted are these: FIG. 2; for extent of mitochondrial failure at the highest Ca+2 concentration: P<0.05 via ANOVA; for extent of mitochondrial collapse compared to buffer-treated controls: compound 5 minutes prior to Ca+2. An excerpt: Transformed rat retinal ganglion cells (RGC-5 cells) were produced by transforming Sprague-Dawley rat retinal cells from postnatal day I rats with replication incompetent Ψ2 EIA virus and was originally established to help illuminate the basic mechanisms underlying RGC apoptosis in glaucoma (Krishnomoorthy, et al., 2001). The cells express the specific cellular marker, Thy-1, consistent with their retinal ganglion cell origin. Confirmation of Thy-1 expression was made by RT-PCR, immunocytochemistry and immunoblot analysis. […] The toxicity response with glutamate has an EC50 of about 50 uM. Importantly, transformed RGC cells undergo TUNEL-positive apoptotic-mediated cell death upon serum deprivation, indicating the presence of classical apoptosis pathways induced by mitochondrial dysfunction and/or failure.
Possible mitochondrial responses of our compounds are evaluated in intact RGC-5 cells using an assay for mitochondrial ΔΨm which is based on fluorescence energy transfer (FRET) between two dyes that colocalize to the mitochondria. The FRET assay circumvents the confounding variables of plasma membrane potential and the low flourcscence efficiency typical of single potentiometric dyes (Dykens and Stout, 2001). Transformed retinal ganglion cells (RGC-5) were plated at a concentration of 60K cells/well twenty-four hours prior to the experiment. The cells were permeabilized in place with 0.08% digitonin. Cells were exposed to 17β-estradiol, 17α-estradiol, and a non-hormonal PPC, Compound H (see Example 5), for 5 minutes prior to the addition of Ca^+2.
The excitation dye in the FRET ΔΨm assay is nonyl acridine orange (NAO). NAO is an exceptionally selective stain for cardiolipin, a lipid found intracellularly almost exclusively (>99%) in the mitochondrial inner membrane. Its staining of the inner membrane is independent of ΔΨm. The second dye is tetramethylrhodamine (TMR), a potentiometric dye that is sequestered into the mitochondrial matrix as a Nernstian function of ΔΨm and imposed concentration. It is the specificity of NAO staining for cardiolipin, combined with the absolute prerequisite for close proximity of both dyes, that allows this FRET assay to report ΔΨm without interference from plasma membrane potential.
Because uptake and retention of TMR depends on ΔΨm, at a given dye concentration, the extent of quenching of NAO by TMR reflects the magnitude of ΔΨm. Dissipation of ΔΨm, in response to […], elevated Ca+2 load, or respiratory […], results in efflux of TMR from the mitochondrion. The corresponding loss of proximity abolishes quenching of NAO, so that loss of ΔΨm is detected as an increase in NAO fluorescence.

For experiment [4], the system named is Trabecular meshwork cells. Briefly: Survival of primary trabecular meshwork cells under toxic conditions (live-dead dyes). As to conditions: hydrogen peroxide 100 uM, 24 hours, compound 2nM. In kind it is cell-based. On the procedure: Trabecular meshwork cells used here were grown from fresh explants obtained from normal donors according to the procedures described in Agarwal et al., (1999) Exp Eye Res., Vol. 68, pp. 583 90 and Hogg et al., (2000) Invest Ophthalmol Vis. Sci., Vol. 41, pp. 1091-8. Cells were toxic conditions by exposure to hydrogen peroxide at 100 uM for 24 hours, which typically kills at least 50% of cells. With different batches of cells, the hydrogen peroxide concentration necessary to obtain 50% cell death frequently needs to be determined empirically. Trabecular cell viability was assessed using commercially available live-dead dyes. Other stains such as stains for DNA fragmentation or annexin binding are also suitable.
Compounds C and D, above, were initially dissolved at lmg/ml in absolute ethanol and diluted in culture medium to a final concentration of 2nM. To control for possible ethanol effects in the treated wells, all batches of media used here as were supplemented with absolute ethanol at appropriate concentrations. Cultured trabecular cells were incubated under toxic conditions with either compound C, compound D or no compound added for a period of 24 hours. Trabecular cell viability was assessed using commercially available live-dead dyes.

In experiment [5] the test system is Transformed rat retinal ganglion cells (RGC-5 cells). The conditions noted are these: read-out: EC50 of toxicity response; cited from earlier work.
Experiment [6] relates to mouse HT-22 hippocampal cells. Nature of the experiment: Protection against glutamate toxicity, calcein AM viability. In kind it is cell-based. As to conditions: glutamate 10 mM, 16 hours, representative study; read-out: Calculated EC50 for protection of cell viability. The protocol:
For instance, in this study, mouse HT-22 hippocampal cells were cultured in DMEM supplemented with 10% fetal calf serum. Cells were plated and simultaneously treated with glutamate (10 mM) and one of the test compounds individually, for instance compound H (also referred to as Compound 4565 in FIG. 2 and one of many protective PPCs disclosed in PCT publications WO02/36605 and WO00/63228), below or positive control 17β-estradiol (E), at various doses between 10 nM and 10 µM. After 16 hours, cell viability was determined using the calcein AM fluorescence (Excitation/Emission 485/530 […]) in a Bio-Tex Microplate Fluorescence Reader.

Experiment [7] relates to retinal ganglion layer. As to conditions: administered prior to the insult; several days following reperfusion; cited from earlier work.
For experiment [8], the system named is retinal ganglion cells. Briefly: Survival of axotomized retinal ganglion cells after intraorbital optic nerve transection. The conditions noted are these: ovarectomized adult female rats, twice daily subcutaneous injection in oil, two days prior to eight days following transection; counted after an additional 4 weeks. In kind it is in vivo. The protocol:
The drugs were dissolved in sesame oil (Penta) at 100 ug/ml. Adult female rats to be used in these experiments were first ovarectomized. Rats were then subjected to intraorbital transection of the optic nerve, a procedure that leads to progressive degeneration of the majority of retinal ganglion cells. Cells survive for a few days and then die abruptly such that by one week only 50% survive and by two weeks only 10% survive. Axotomy is well known to lead to the death of retinal ganglion cells by an apoptotic process, causing classical cytochemical alterations characteristic of programmed cell death.
From two days prior to eight days following optic nerve transactions, 17β-estradiol, ent-17β-estradiol, or appropriate amount of vehicle control sample was administered to the animals by a twice daily subcutaneous injection of compound in oil at 100 ug/ml (see above), such that the final concentration delivered was 100 ug/. If the protective compounds to be used are in a water soluble formulation, they can, alternatively, be delivered by a single intravitreal injection. […]
After an additional 4 weeks, the retinal ganglial cells were labeled by retrograde staining with the carbocyanine dye, 4Di-10Asp, which was applied to the nerve stump. Three days later animals were sacrificed and surviving retinal cells were counted in retinal whole mounts. […]

Experiment [9] has as its system Human retinal pigment epithelial cells (RPE340 cells). Briefly: Survival of retinal pigment epithelial cells under hyperoxia (Trypan blue exclusion). In kind it is cell-based. As to conditions: 40% O2 hyperoxia, 5 days, compound 2 nM. On the procedure:
Human retinal pigment epithelial cells (RPE340 cells) were grown and subjected to conditions of hyperoxia according to Honda et al., (2001) Invest Ophthalmol Vis. Sci., Vol. 42, pp. 2139-44. The cells were subjected to either 40% O2 or 20% O2 (control) for the duration of the experiment. These conditions are known to induce apoptotic cell death.
Compounds A and B, above, were initially dissolved at 1 mg/ml in absolute ethanol and diluted in culture medium to a final concentration of 2 nM. To control for possible ethanol effects in the treated wells, all batches of media used here were supplemented with absolute ethanol at appropriate concentrations. Cells were incubated under hyperoxic conditions with either compound A, compound B or no compound added for a period of 5 days. Effects on cell viability and growth were monitored by Trypan blue exclusion.

For `C[C@]12CC[C@@H]3c4ccc(O)cc4CC[C@H]3[C@@H]1CC[C@H]2O` [17α-estradiol], in experiment [1], the “amount of Ca+2 required to induce ΔΨm collapse” value is recorded as “substantially increase”. For the same compound, the “dose giving substantial cytoprotection” value in [2] is on record as 0.2 nM. For the same compound, in experiment [3], the “extent of mitochondrial failure at the highest Ca+2 concentration” value is given as “significantly lowered” and the “extent of mitochondrial collapse compared to buffer-treated controls” value was “moderated”.

With `C[C@]12CC[C@@H]3c4cc(C56CC7CC(CC(C7)C5)C6)c(O)cc4CC[C@H]3[C@@H]1CCC2=O` [C, 2-(1-Adamantyl)-3-hydroxyestra-1,3, 5 (10)-trien-17-one], the “survival of trabecular cells” value in experiment [4] is given as “significantly improve survival”.

As a reminder, the EC50 is the concentration at which the effect is half-maximal. In the case of `N[C@@H](CCC(=O)O)C(=O)O` [glutamate], the EC50 in experiment [5] was about 50 µM.

In the case of `C[C@]12CC[C@@H]3c4ccc(O)cc4CC[C@H]3[C@@H]1CC[C@@H]2O` [17β-estradiol], the “amount of Ca+2 required to induce ΔΨm collapse” value in experiment [1] is on record as “substantially increase”. In addition, the “dose giving substantial cytoprotection” value in [2] was 0.2 nM. Further, the EC50 in [6] was 2.2 µM. Further, the “cell density in the retinal ganglion layer” value in experiment [7] is given as “significantly higher”. For the same compound, in experiment [3], the “extent of mitochondrial failure at the highest Ca+2 concentration” value was “significantly lowered” and the “extent of mitochondrial collapse compared to buffer-treated controls” value was “moderated”. Also, the “number of surviving retinal ganglial cells compared to the controls” value in [8] is 3 fold.

As for `C[C@]1(C=O)CC[C@@H]2c3ccc(O)cc3CC[C@H]2C1` [compound B, [2S-(2a, 4aα, 10aβ)]-1,2,3,4,4a, 9, 10, 10a-octahydro-7-hydroxy-2-methyl-2-phenanthrenecarboxaldehyde], the “protection from cell death” value in experiment [9] is on record as “protect these cells from cell death”.

`C[C@@]12CC[C@H]3c4ccc(O)cc4CC[C@@H]3[C@H]1CC[C@H]2O` (single isomer, unassigned; ent-17) [ent-17β-estradiol]: in experiment [8], the “number of surviving retinal ganglial cells compared to the controls” value was found to be 3 fold.

For the compound `CC(C)(C)c1cc2c(cc1O)CC[C@@H]1[C@@H]2CC[C@]2(C)C(=O)CC[C@@H]12` [D, 2-(1-tertbutyl)-3-hydroxyestra-1,3, 5 (IO)-trien-17-one], the “survival of trabecular cells” value in experiment [4] is on record as “significantly improve survival”.

For `C[C@]1(CO)CC[C@@H]2c3ccc(O)cc3CC[C@H]2C1` [compound A, [2S-(2a, 4aα, 10aβ)]-1,2,3,4,4a,9,10,10a-octahydro-7-hydroxy-2-methyl-2-phenanthrenemethanol], in [9], the “protection from cell death” value is given as “protect these cells from cell death”.

Values taken from US20030105167A1, “Treatment of opthalmic diseases” (priority 2001, published 2003).
